Assay results reported in patent US8178091B2, “Compositions and methods for the treatment of respiratory disorders” (University of Washington, priority 2007, dated 2012).
pIC50: −log10 of the molar value. Entries after “also recorded” stand apart in the source; their conditions may differ. Where two headings read alike, the source gives them in different places.

Tests used:
IGF-1R [1] = biological target: T1, IGF-1R (Homo sapiens, UniProt P08069); settings: cited from earlier work
PDGFR = settings: intact cells; cited from earlier work
IGF-1R [2] = biological target: T1, IGF-1R; settings: cited from earlier work; remark: listed apart in the source
IGF-1R [3] = biological target: T1, IGF-1R; settings: cited from earlier work; remark: listed apart in the source
IR [4] = biological target: IR (Homo sapiens, UniProt P06213); settings: even at high concentrations; cited from earlier work
β-tubulin = settings: interaction with β-tubulin, mitotic arrest; cited from earlier work
[5] = test system: primary distal lung human epithelial cells; assay: apoptosis assay (Cell Death Detection ELISA-plus), lung epithelial cells; assay type: cell-based; settings: serum starvation, increasing concentrations
Method: (§1) A: Normal human lung fibroblast or distal lung epithelial cells were serum-starved overnight and then incubated with indicated concentration of IGF-1R antibody or IGFBP-3 overnight. B: A549 cells were serum-starved and incubated with IGF-1R antibody (136 μg/ml) with or without the indicated concentration of Fas ligand. Apoptosis was measured by Cell Death ELISA-plus ELISA (Roche Applied Science) per the manufacturer's directions. All experiments were done in triplicate and repeated at least twice. Apoptosis index is defined as the ratio of experimental condition OD405 nm: control (media alone) OD405 nm.
(§2) Primary normal human lung fibroblasts (Clonetics, Cambrex Bioscience, Rockland, Me.), primary distal lung human epithelial cells (Clonetics) or A549 (American Type Culture Collection, Manassas, Va.) were seeded in a 96-well tissue culture plate (2×10^4 cells/well) overnight and serum-starved for 24 hours. […] After 48 hours, apoptosis was measured. To prevent detached cells from being aspirated, plates were centrifuged at 200×g for 10 minutes, and apoptosis was measured using the Cell Death Detection ELISA-plus System (Roche Applied Science, Penzberg, Germany), which detects cytosolic histone-complexed DNA fragments. […]

[6] = test system: primary normal human lung fibroblasts; assay: apoptosis assay (Cell Death Detection ELISA-plus), lung fibroblasts; assay type: cell-based; settings: serum starvation, increasing concentrations
Method: as §1, §2

[7] = rats; cited from earlier work
IGF-1R-positive tumors = settings: mice; cited from earlier work
tumors = settings: nude mice; cited from earlier work
IGF-1R [8] = biological target: T1, IGF-1R; settings: cited from earlier work; remark: listed apart in the source
IR [9] = settings: in vivo; cited from earlier work
human IGF-1R mRNA = settings: cited from earlier work
[10] = oxidation; cited from earlier work
[11] = test system: primary mouse lung fibroblasts; assay: proliferation assay (MTT); assay type: cell-based, C57BL6 mice
Method: Mouse lung fibroblasts from saline-treated mice (A) or bleomycin-treated mice (B) were plated in triplicate and serum-starved overnight followed by addition of IGF-1 (100 ng/ml), serum-free media (negative control), 10% FBS (positive control), and then incubated for indicated time. Cell proliferation was measured by MTT assay. Data are shown as mean OD570 nm±SD and are average of at least 4 independent experiments.
For proliferation assays, primary mouse lung fibroblasts were plated at 10,000 cells/100 μl in 96-well plates. After initial adhesion, medium was changed to serum free overnight and then IGF-1 (100 ng/ml) was added. As a positive control, cells were grown in 10% FBS; as a negative control, cell were grown in serum-free media. Cell proliferation was assayed at 48, 72 or 96 hours by colorimetric methyl thiazolyl tetrazolium (MTT) assay per manufacturer's direction (Qiang et al., Blood 103:301-308 (2004)). Optical density of plates was read on a Spectra Max 250 (Molecular Device, Sunnyvale, Calif.) at 570 nm. All experiments were done in triplicate and repeated three times.

[12] = test system: primary mouse lung fibroblasts; assay: migration assay (FluoroBlok transwell); assay type: cell-based, C57BL6 mice
Method: Mouse lung fibroblasts were plated FluoroBlok transwell filters overnight, then IGF-1 (100 ng/ml), serum free media (negative control), 10% serum (positive control) was added to lower chamber. Some cells were preincubated with the blocking antibody to IGF-1R (A12, 40 μg/ml) before the addition of IGF-1. Cells were allowed to migrate through membrane for 4 hours @ 37° C. Migrated cells were counted with Fluorescent microscope. Each experiments was done in triplicate and repeated at least three times. Average cell count ±SD are presented.
For migration assays, primary mouse lung fibroblasts (50,000 cells/well) were plated in serum-free medium overnight on Fluoroblok transwell filters (8 μm pores, HTS FluoroBlok™ 24-Multiwell Insert System, BD Bioscience, Bedford, Mass.) pre-coated with fibronectin (50 μg/ml). Fluoroblok microporous membranes are specifically designed to detect by fluorescence only cells below the surface membrane. IGF-1 (100 ng/ml), 10% FBS (positive control) or serum-free media (negative control) was added to lower chamber. In some experiments, cells were preincubated with the blocking antibody to IGF-1R (A12, 40 μg/ml), for 1 hour. After 4 hours of migration, filters were fixed with formaldehyde and stained with DAPI (4′6-Diamidine-2′-phenylindole dihydrochloride, Roche, Indianapolis, Ind.). Migrated cells were counted in three predesignated fields for each filter. All experiments were done in triplicate and repeated at least three times.

mouse lung fibroblasts = assay: Western blot of signaling in IGF-stimulated lung fibroblasts; assay type: cell-based; settings: IGF-1 100 ng/ml
Method: Tyrosine phosphorylation of receptor tyrosine kinase substrates was evaluated. Mouse lung fibroblasts were serum-starved overnight and then stimulated with IGF-1 (100 ng/ml) for indicated times. Cells were lysed, and proteins separated by SDS-PAGE. Each membrane was blotted with indicated phospho-antibody then stripped and reblotted with antibody to total protein. Substrates include IGF-1R, IRS-1 and IRS-2. The tyrosine phosphorylated forms of the substrates are indicated by pIGF-1R, pIRS-1 and pIRS-2, respectively.
Tyrosine phosphorylation of receptor tyrosine kinase substrates was evaluated. Substrates include AKT, ERK. The tyrosine phosphorylated forms of the substrates are indicated by pAKT, pERK, respectively.
For Western Blot analyses, cells were grown to 70% confluence, placed in serum free medium overnight and then IGF-1 (100 ng/ml) was added for 5, 10, 15, 30 and 60 minutes. At indicated time points, cells were washed in ice-cold PBS and lysed in buffer containing 100 mM Tri-HCl (pH 7.4), 150 mM NaCl, 1 mM CaCl2, 0.1% SDS, 1% Triton-X, 0.1% NP-40, 1 mM […] (sodium vanadate), 1 mM NaF (sodium Fluoride) and protease inhibitor cocktail tablet (Roche). Protein concentrations were determined by the BCA assay (Pierce). Equal amounts of protein were separated by sodium dodecyl sulfate-polyacrylamide gel electrophoresis (SDS-PAGE), and electrophoretically transferred to PVDF membrane. Membranes were blocked with 5% nonfat dry milk/0.05% Tween-20/PBS for 2 hours, incubated with primary antibody for 2 hours at room temperature, washed with 0.05% Tween-20/PBS, incubated with horseradish peroxidase-conjugated secondary antibody (1:5000) for 2 h, washed with 0.05% Tween-20/PBS and then developed with enhanced chemiluminescence (ECL) technique (Amersham, England).

T1 sequence (P08069 31-1367, species assumed): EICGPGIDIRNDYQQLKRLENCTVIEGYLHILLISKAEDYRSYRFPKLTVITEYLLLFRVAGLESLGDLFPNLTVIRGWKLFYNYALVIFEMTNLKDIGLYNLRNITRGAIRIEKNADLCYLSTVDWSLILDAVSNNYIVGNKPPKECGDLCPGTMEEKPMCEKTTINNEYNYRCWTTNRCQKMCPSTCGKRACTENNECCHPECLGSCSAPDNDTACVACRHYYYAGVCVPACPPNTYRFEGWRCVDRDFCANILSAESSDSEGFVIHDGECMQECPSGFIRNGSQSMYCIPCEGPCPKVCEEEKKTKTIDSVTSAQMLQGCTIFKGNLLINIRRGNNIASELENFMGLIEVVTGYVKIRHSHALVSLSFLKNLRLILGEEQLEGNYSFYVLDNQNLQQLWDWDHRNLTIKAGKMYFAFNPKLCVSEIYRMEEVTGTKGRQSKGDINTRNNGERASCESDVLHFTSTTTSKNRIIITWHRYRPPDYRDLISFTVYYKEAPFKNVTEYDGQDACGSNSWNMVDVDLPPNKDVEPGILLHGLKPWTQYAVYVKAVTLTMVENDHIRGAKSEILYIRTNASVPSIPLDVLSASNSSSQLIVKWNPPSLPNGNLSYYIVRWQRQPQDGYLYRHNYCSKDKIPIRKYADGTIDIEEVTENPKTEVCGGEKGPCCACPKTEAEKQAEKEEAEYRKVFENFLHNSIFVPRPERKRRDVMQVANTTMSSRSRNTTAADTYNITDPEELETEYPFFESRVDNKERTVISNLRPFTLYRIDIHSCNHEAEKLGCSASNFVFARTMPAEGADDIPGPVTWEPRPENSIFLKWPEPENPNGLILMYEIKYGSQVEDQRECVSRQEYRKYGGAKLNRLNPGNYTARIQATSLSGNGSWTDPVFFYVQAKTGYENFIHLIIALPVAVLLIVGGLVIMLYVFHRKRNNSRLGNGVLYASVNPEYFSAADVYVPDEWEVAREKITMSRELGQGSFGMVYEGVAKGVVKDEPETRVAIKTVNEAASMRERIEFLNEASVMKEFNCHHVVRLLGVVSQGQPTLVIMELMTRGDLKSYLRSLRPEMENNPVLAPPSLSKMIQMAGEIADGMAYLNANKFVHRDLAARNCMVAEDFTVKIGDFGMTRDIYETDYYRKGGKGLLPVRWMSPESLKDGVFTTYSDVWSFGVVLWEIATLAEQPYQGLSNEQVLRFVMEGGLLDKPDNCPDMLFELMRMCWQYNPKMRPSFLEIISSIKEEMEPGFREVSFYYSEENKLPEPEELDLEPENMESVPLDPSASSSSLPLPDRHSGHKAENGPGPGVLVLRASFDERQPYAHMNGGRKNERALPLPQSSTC
Chain of IR (Homo sapiens, UniProt P06213) (P06213 28-1382): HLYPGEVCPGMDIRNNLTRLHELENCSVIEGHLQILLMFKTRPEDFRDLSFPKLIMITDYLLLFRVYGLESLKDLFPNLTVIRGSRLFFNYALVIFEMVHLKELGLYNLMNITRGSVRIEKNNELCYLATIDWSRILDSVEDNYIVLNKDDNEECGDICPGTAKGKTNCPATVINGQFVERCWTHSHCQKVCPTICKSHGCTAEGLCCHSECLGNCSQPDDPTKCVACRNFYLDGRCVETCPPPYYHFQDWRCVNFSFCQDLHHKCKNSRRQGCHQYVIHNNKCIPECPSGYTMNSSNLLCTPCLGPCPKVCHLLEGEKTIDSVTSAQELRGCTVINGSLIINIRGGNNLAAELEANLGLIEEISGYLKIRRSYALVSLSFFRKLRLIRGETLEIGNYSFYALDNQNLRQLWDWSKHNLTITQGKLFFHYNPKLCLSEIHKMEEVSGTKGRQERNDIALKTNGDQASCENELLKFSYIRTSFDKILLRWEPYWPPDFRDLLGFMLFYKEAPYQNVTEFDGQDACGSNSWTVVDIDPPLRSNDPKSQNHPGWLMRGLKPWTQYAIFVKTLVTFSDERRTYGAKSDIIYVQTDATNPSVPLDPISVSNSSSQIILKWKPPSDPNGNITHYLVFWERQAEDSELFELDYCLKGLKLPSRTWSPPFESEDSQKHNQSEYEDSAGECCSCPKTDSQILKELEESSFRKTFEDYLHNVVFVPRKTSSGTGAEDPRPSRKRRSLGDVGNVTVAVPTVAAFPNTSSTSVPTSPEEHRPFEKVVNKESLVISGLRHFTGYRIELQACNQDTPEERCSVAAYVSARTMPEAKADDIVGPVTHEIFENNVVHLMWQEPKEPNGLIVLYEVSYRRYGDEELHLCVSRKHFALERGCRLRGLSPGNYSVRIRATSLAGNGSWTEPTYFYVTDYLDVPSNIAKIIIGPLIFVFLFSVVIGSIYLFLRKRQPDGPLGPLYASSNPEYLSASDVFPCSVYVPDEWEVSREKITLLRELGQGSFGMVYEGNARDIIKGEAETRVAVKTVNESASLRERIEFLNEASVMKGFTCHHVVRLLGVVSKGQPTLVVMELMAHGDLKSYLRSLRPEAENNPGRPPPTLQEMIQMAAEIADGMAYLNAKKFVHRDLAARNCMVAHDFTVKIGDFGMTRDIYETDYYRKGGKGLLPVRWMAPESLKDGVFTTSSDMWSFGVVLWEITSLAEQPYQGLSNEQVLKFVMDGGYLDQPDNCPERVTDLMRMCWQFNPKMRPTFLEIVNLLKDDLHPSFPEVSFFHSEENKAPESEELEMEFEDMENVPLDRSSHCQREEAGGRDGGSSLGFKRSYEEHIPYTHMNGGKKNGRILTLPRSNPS

In the case of `N#C/C(=C\c1ccc2oc(=O)[nH]c2c1)C(=O)c1ccc(O)c(O)c1` [AGL 2263], the “activity relative to parent compound AG 538 in cell culture assays” value (IGF-1R [1]; cell culture assays) is listed as “comparable to the parent compound”, the pIC50 (IGF-1R [1]; intact cells, read-out: IC50 inhibiting the activation of PKB in intact cells) is listed as 5.22 and the “PKB activation by PDGFR” value (PDGFR) is listed as “did not affect”. The “activity relative to parent compound AG 538 in cell free assays” value (IGF-1R [2]; cell free assays) was “somewhat less active”.
For `COc1cc([C@@H]2c3cc4c(cc3[C@H](O)[C@H]3COC(=O)[C@H]23)OCO4)cc(OC)c1OC` [PPT, podophyllotoxin], the “IC50 on IGF-1R activity” value (IGF-1R [3]) is given as “sub-micromolar”, the “effect on IR activity” value (IR [4]) is given as “did not affect IR activity” and the cytotoxicity (β-tubulin) is given as “cytotoxic”.
With “IGFBP-3: insulin-like growth factor-binding protein-3 (R&D Systems)” the “apoptosis of primary lung epithelial cells” value [5] was “increased apoptosis was not observed” and the “apoptosis of primary human lung fibroblasts” value [6] was “increased apoptosis was not observed”.
For `COc1cc([C@@H]2c3cc4c(cc3[C@H](O)[C@H]3COC(=O)[C@@H]23)OCO4)cc(OC)c1OC` [PPP, picropodophyllin], the “IC50 on IGF-1R activity” value (IGF-1R [3]) is given as “sub-micromolar”, the “effect on IR activity” value (IR [4]) is given as “did not affect IR activity” and the LD50 [7] is given as greater than 500 mg/kg. For the same molecule, the “killing IGF-1R-positive tumors” value (IGF-1R-positive tumors) was “effective at killing IGF-1R-positive tumors”.
In the case of `COc1ccc(Cl)cc1NC(=O)Nc1cc(C)nc2ccccc12` [PQ401], the “growth rate of tumors” value (tumors) is listed as “reduce the growth rate of tumors”.
For `CN1CCN([C@H]2C[C@@H](c3nc(-c4ccc5ccc(-c6ccccc6)nc5c4)c4c(N)nccn43)C2)CC1` [cis-3-[3-(4-methyl-piperazin-1-yl)-cyclobutyl]-1-(2-phenyl-quinolin-7-yl)-imidazo[1,5-a]pyrazin-8-ylamine], the “IGF-1R activity in vivo” value (IGF-1R [8]) is given as “inhibit IGF-1R activity in vivo” and the “rise in blood sugar” value (IR [9]) is given as “without causing any substantial rise in blood sugar”.
In the case of “siRNA 2: 5'-GGUCUUCUCACACAUCGGCUU-3' (antisense; SEQ ID NO: 3) and 5'-GCCGAUGUGUGAGAAGACCUU-3' (sense; SEQ ID NO: 4) (listed as RNA, chemistry not given here)”, the “targeting of human IGF-1R mRNA” value (human IGF-1R mRNA) is listed as “effective to target human IGF-1R mRNA”.
For `N#C/C(=C\c1ccc(O)c(O)c1)C(=O)c1ccc(O)c(O)c1` [AG 538], the “receptor autophosphorylation and activation of downstream targets PKB and Erk2” value (IGF-1R [1]; cultured cells) is given as “inhibits receptor autophosphorylation”, the “stability of catechol moiety” value [10] is given as “unstable due to its vulnerability to oxidation” and the pIC50 (IGF-1R [2]; cell free kinase assay, read-out: IC50 inhibition of IGF-1R) is given as 7.21.
With “IGF-1: insulin-like growth factor 1, purchased from R&D Systems” the “proliferation of normal mouse lung fibroblasts” value ([11]; IGF-1 50 or 100 ng/ml, serum-free, up to 96 h) was “did not increase proliferation; also recorded: increased proliferation was not observed”, the “proliferation of activated fibroblasts derived from bleomycin-treated mice” value ([11]; data not shown) was “can induce proliferation” and the increase in migration ([12]; IGF-1 100 ng/ml, FIG. 4) was 1.8 fold. For the same molecule, the “migration of MLF in response to IGF-1” value ([12]; transwell filter, 4 hours, FIG. 5) was “increased migration”, the Akt phosphorylation (mouse lung fibroblasts) was “phosphorylated in response to IGF-1 stimulation by 15 minutes and persisted until 60 minutes” and the ERK phosphorylation (mouse lung fibroblasts) was “did not undergo phosphorylation”. For the same molecule, the IRS-1 phosphorylation (mouse lung fibroblasts) was “did not change”, the IRS-2 phosphorylation (mouse lung fibroblasts) was “increased phosphorylation by 10 minutes that persisted until 30 minutes” and the “time to IGF-1R phosphorylation” value (mouse lung fibroblasts) was no more than 10 min.
For `COc1cccc(-c2cc(=O)c3ccccc3o2)c1N` [PD98059, reference compound], the “effect on IGF-1-induced migration” value ([12]; IGF-1 100 ng/ml, A12 40 μg/ml preincubation) was “partially inhibited”.
For “siRNA 1: 5'-GGGACCCUCCUCCGGAGCCAG-3' (antisense; SEQ ID NO: 1) and 5'-GGCUCCGGAGGAGGGUCCCCG-3' (sense; SEQ ID NO: 2) (listed as RNA, chemistry not given here)”, the “targeting of human IGF-1R mRNA” value (human IGF-1R mRNA) is listed as “effective to target human IGF-1R mRNA”.
